From US6350766B1, “Dihydropyridine derivative” (Ajinomoto Co., Inc., priority 1997, dated 2002)

How the values were obtained:
L-type calcium channel = L-type calcium channel inhibition
N-type calcium channel = molecular target: T1, N-type calcium channel (Rattus norvegicus, UniProt Q02294); experiment: Inhibition of N-type calcium channel: calcium currents in cells of maxillary sympathetic ganglions of rats, whole cell voltage clamp; assay type: cell-based; details: rat maxillary sympathetic ganglion cells, depolarization from -60 mV to 0 mV, barium as charge carrier
T1 construct: from tissue; host or cells: freshly dissociated sympathetic ganglion cells of Wistar rats (2 to 4 weeks old)
T1 sequence (Q02294 whole entry): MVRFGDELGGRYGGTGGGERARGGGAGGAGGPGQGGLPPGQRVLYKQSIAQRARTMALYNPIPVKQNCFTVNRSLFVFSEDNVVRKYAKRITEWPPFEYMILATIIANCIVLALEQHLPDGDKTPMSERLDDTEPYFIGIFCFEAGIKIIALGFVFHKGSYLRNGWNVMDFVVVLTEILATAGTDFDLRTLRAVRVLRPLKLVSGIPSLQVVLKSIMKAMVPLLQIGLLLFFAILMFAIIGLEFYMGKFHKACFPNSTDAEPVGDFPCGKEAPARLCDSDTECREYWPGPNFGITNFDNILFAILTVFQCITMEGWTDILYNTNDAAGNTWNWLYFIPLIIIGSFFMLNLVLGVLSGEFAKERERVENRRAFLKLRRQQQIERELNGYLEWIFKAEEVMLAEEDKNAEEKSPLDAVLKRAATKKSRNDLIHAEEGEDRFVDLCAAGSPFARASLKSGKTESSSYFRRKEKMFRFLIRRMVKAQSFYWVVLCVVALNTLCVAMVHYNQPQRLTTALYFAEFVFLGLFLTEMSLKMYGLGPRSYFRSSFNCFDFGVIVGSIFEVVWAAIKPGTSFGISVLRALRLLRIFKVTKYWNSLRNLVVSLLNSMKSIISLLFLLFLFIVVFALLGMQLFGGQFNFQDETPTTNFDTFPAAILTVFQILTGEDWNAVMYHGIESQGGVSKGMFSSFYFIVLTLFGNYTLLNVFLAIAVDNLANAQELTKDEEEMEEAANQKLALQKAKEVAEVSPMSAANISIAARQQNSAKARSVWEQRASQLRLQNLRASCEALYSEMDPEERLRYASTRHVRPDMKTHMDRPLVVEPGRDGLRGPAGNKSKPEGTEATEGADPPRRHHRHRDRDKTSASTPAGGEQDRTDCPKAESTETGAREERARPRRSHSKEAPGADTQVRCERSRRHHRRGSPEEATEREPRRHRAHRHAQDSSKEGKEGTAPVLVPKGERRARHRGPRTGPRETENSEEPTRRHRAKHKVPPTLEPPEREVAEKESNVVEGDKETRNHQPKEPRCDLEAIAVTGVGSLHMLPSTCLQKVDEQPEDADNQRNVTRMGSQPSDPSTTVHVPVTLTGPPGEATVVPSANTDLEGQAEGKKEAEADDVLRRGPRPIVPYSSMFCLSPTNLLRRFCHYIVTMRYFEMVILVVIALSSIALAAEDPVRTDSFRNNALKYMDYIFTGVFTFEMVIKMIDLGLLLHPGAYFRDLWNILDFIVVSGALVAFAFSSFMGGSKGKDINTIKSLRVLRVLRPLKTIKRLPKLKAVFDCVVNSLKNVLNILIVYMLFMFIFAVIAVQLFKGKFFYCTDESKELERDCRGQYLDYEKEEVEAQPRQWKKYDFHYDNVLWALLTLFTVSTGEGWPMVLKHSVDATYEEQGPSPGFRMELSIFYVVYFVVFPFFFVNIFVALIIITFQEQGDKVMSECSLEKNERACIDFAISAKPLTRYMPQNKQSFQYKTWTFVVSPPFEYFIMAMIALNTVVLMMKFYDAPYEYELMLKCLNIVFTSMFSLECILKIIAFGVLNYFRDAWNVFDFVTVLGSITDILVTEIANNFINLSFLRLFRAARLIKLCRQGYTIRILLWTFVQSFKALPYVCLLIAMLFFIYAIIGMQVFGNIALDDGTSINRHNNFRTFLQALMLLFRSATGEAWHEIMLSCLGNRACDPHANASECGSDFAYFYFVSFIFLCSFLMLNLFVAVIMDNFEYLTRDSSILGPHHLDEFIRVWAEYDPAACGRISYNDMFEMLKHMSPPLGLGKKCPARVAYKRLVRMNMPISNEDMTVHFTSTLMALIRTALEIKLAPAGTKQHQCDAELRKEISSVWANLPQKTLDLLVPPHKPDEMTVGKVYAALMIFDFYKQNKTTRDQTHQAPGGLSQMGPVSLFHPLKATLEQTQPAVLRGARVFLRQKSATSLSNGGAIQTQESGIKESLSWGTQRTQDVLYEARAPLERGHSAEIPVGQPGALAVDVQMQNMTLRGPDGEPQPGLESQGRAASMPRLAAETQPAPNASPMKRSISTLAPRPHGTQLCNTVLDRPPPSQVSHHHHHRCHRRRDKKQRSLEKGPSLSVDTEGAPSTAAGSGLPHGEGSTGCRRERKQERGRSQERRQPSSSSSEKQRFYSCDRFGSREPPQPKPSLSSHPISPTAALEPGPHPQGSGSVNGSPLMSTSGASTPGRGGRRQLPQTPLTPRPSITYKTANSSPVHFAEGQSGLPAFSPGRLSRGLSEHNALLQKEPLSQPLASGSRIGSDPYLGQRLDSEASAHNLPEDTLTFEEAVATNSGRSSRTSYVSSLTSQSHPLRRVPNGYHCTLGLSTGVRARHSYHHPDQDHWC
T1 sequence (P54287 whole entry partner): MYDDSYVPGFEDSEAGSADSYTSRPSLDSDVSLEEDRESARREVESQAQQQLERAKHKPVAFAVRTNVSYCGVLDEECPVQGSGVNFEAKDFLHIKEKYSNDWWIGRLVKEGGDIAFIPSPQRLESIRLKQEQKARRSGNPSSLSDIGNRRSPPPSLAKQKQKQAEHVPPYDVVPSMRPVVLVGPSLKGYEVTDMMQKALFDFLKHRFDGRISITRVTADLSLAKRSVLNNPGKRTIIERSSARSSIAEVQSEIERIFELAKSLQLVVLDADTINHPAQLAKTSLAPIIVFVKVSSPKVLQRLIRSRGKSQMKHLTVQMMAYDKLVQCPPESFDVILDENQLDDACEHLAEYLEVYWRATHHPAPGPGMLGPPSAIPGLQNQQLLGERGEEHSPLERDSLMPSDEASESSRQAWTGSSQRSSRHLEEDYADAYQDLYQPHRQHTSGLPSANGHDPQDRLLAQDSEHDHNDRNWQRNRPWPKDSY
T1 sequence (P54290 25-944 partner limits assumed): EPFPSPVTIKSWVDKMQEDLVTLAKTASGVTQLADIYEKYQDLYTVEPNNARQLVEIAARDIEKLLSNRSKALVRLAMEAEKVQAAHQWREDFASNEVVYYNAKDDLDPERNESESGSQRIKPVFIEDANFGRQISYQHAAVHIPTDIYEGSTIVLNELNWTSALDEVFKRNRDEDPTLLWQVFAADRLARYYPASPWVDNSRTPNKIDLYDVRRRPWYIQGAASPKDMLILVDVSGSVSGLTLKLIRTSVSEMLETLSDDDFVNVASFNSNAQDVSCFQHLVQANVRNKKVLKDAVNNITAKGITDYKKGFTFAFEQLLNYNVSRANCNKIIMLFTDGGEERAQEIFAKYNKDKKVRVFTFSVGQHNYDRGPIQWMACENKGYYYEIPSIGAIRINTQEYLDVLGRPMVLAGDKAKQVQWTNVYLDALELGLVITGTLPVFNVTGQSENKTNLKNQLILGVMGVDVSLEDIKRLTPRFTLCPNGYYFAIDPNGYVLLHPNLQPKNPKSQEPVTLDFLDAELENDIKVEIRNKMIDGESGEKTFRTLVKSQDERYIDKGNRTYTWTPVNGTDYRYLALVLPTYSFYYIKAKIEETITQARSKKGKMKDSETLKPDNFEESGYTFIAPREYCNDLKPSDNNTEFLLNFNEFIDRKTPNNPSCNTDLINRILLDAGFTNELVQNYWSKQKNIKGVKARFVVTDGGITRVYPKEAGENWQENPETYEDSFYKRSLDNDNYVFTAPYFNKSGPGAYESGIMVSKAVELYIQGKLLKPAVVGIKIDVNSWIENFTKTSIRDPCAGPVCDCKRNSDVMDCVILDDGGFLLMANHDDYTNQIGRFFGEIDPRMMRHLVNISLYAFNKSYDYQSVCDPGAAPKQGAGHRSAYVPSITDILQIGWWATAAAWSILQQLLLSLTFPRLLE
T1 sequence (P54290 945-1091 partner limits assumed): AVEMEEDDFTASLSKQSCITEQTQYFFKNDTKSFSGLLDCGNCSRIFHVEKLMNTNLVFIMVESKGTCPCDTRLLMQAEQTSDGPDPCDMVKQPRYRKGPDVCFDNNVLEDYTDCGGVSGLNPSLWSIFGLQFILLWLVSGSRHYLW
Procedure: (Test Examples) Inhibition activity of N-type calcium channel:
1) Preparation of cells of maxillary sympathetic ganglions of rats:
The cervix of each of Wistar rats (2 to 4 weeks old) was opened to expose the maxillary ganglions under anesthesia with pentobarbital. A pair of the ganglions were removed and immediately washed with Ca^2+-free Tyrode solution cooled with ice. Each ganglion was cut into 3 or 4 pieces and kept in the Ca^2+-free Tyrode solution for 15 minutes. Then, these pieces were treated with papain [Washington Biochemicals (lot#35J557); 20 U/ml] and then with a mixture of type-2 collagenase [Washington Biochemicals (CLS2); 5900 U/ml] and dispase [Calbiochem (lot#1312973); 16 mg/ml] for one hour. After enzymatic treatment, the ganglion cells were mechanically isolated by pipetting. The isolated ganglion cells were used for the experiments within 6 hours.
2) Determination of calcium electric current:
The calcium electric current was determined by the whole cell voltage clamp method under the fixed membrane potential. The pipette electrode was pulled from glass tube (inner diameter: 1.5 mm; Narishige) in two stage of a vertical pipette puller (PB-7; Narishige). The ionic current was amplified with a patch amplifier (CEZ-2300; Nihon Kohden Corporation). The noises were cut at 10 kHz (E-3201B, NF Electronic Instrument) and then the ionic current was monitored on a storage oscilloscope (DS-9121, Iwatsu) and, at the same time, recorded with a DAT data recorder (RD-120TE, TEAC). Then it was passed through a 1 kHz filter and recorded in a computer (Compaq DeskPro) with PCLAMP software (Axon Instrument) of 3 kHz. All the experiments were performed at room temperature (25±2° C.). In the measurement of current through the calcium channel, 10 mM barium (composition of the solution: shown below) was used in place of calcium as the charge carrier. The transmission of barium through the calcium channel was better than that of calcium in the sympathetic ganglion cells, and the calcium-dependent channel inactivation was slight when barium was used.
The test compounds were rapidly administered by Y-tube method by Murase et al. [Brain Res. 525, 84 (1990)]. Each compound was dissolved in DMSO, preparing 10 mM mother solution. At the highest drug concentration used, the vehicle (0.1%) had no significant effect on the calcium current.
2) Composition of Normal Tyrode's solution: NaCl; 143, KCl; 4, MgCl2; 0.5; CaCl2; 1.8, glucose; 5.5, NaH2PO4; 0.33, HEPES; 5 (Mm). The pH was adjusted to 7.4 with tris-OH. Composition of Ca-free Tyrode's solution: the same as that of the Normal Tyrode's solution except that it was free of CaCl2.
External solution for the determination of calcium electric current (mM): TEACL; 144, CsCl; 4, BaCl2; […], MgCl2; 0.53, glucose: 5.5, HEPES; 5 (pH 7.4)
Solution in patch electrode: CsCl; 140, MgCl2; 5, CaCl2; 0.28, HEPES; 10 (pH 7.2), EGTA; 5 (pH 7.2).
The electric current was induced by the depolarization for 50 ms, from the holding potential of −60 mV to the test potential of 0 mV. This test potential was the peak in the current/voltage relationship, and the inhibition effect was examined at this point at which the error by the drift of the holding potential was reduced. As Tsein et al. reported, the maxillary ganglion cells were substantially free of L-type component (not more than 5%), and at least 85% thereof comprised the N-type component. […] The inhibition activity of the dihydropyridine derivatives (1 uM) thus determined was 10 to 70%.

| SMILES | IC50 (L-type calcium channel) [nM] | inhibition at 0.1 µM (N-type calcium channel) [%] | L-type inhibition 100 nM (%) (L-type calcium channel) |
| --- | --- | --- | --- |
| CC1=C(C(=O)O)C(c2cccc(C#N)c2)C(C(=O)OC/C=C/c2ccccc2)=C(C)N1 (stereo not drawn) [Example 3, mono(3-phenyl-2-propene-1-yl) 4-(3-cyanophenyl)-2,6-dimethyl-1,4-dihydropyridine-3,5-dicarboxylate] | 6.3 | 47.5 | 98 |
| CC1=C(C(N)=O)C(c2cccc(Cl)c2)C(C(=O)OC/C=C/c2ccccc2)=C(C)N1 (stereo not drawn) [Example 8, (3-phenyl-2-propene-1-yl) 5-carbamoyl-4-(3-chlorophenyl) -2,6-dimethyl-1,4-dihydropyridine-3-carboxylate] | 32 | 31.4 | 75 |

Continued, in another order:

| IC50 (L-type calcium channel) [nM] | inhibition at 0.1 µM (N-type calcium channel) [%] | SMILES | L-type inhibition 100 nM (%) (L-type calcium channel) |
| --- | --- | --- | --- |
| 82 | 21.3 | CC1=C(C#N)C(c2cccc(Cl)c2)C(C(=O)OC/C=C/c2ccccc2)=C(C)N1 (stereo not drawn) [Example 9, (3-phenyl-2-propene-1-yl) 4-(3-chlorophenyl) -5-cyano-2,6-dimethyl-1,4-dihydropyridine-3-carboxylate] | 56 |
| 250 | 24.3 | COc1cccc(C2C(C(=O)O)=C(C)NC(C)=C2C(=O)OC/C=C/c2ccccc2)c1 (stereo not drawn) [Example 20, mono(3-phenyl-2-propene-1-yl) 4-(3-methoxyphenyl)-2,6-dimethyl-1,4-dihydropyridine-3,5-dicarboxylate] | 38 |
| 50 | 28.6 | CC1=C(C(=O)O)C(c2cccc(Cl)c2)C(C(=O)OCC(=O)Nc2ccccc2)=C(C)N1 (stereo not drawn) [Example 14, mono(phenylcarbamoylmethyl) 4-(3-chlorophenyl)-2,6-dimethyl-1,4-dihydropyridine-3,5-dicarboxylate] | 70 |
